Legend:
Assay type in all cases: in vivo
[1] = test system: Alopecurus myosuroides (ALOMY); experiment: greenhouse post-emergence herbicidal activity on ALOMY; details: solo application
Excerpt: (§1) For the post-emergence treatment, the test plants were first grown to a height of 3 to 20 cm, depending on the plant habit, and only then treated. Here, the herbicidal compositions were suspended or emulsified in water as distribution medium and sprayed using finely distributing nozzles.
(§2) The respective herbicides B and/or safener were formulated as 10% by weight strength suspension concentrate and introduced to the spray liquor with the amount of solvent system used for applying the active compound. Herbicides A, C and/or safener were used as commercially available formulations and introduced to the spray liquor with the amount of solvent system used for applying the active compound. In the examples, the solvent used was water.
(§3) The test period extended over 21 days. During this time, the plants were tended, and their response to the treatments with active compound was evaluated.
(§4) The evaluation for the damage caused by the chemical compositions was carried out using a scale from 0 to 100%, compared to the untreated control plants. Here, 0 means no damage and 100 means complete destruction of the plants.
(§5) The value E, which is to be expected if the activity of the individual compounds is just additive, was calculated using the method of S. R. Colby (1967) “Calculating synergistic and antagonistic responses of herbicide combinations”, Weeds 15, p. 22 ff. For two component mixtures the value E was calculated by the following formula E=X+Y−(X·Y/100)
(§6) For three component mixtures the value E was calculated by the following formula E=X+Y+Z−(XY+XZ+YZ)/100+(X·YZ/10000) where X=effect in percent using herbicide A at an application rate a; • Y=effect in percent using herbicide B at an application rate b; • Z=effect in percent using herbicide C at an application rate c; • E=expected effect (in %) of A+B at application rates a+b. or • E=expected effect (in %) of A+B+C at application rates a+b+c.
(§7) If the value observed in this manner is higher than the value E calculated according to Colby, a synergistic effect is present.
(§8) Tables 1 to 12 relate to the herbicidal activity of the individual actives and of their combinations in post-emergence application assessed 20 DAT.

[2] = test system: Chenopodium album (CHEAL); experiment: greenhouse post-emergence herbicidal activity on CHEAL; details: solo application; for inhibition at 6.25 g/ha: 6.25 g ai/ha
Excerpt: as §1, §2, §3, §4, §5, §6, §7, §8

[3] = test system: Digitaria sanguinalis (DIGSA); experiment: greenhouse post-emergence herbicidal activity on DIGSA; details: solo application
Excerpt: as §1, §2, §3, §4, §5, §6, §7, §8

Galium aparine (GALAP) = experiment: greenhouse post-emergence herbicidal activity on GALAP; details: solo application
Excerpt: as §1, §2, §3, §4, §5, §6, §7, §8

[4] = test system: Lolium multiflorum (LOLMU); experiment: greenhouse post-emergence herbicidal activity on LOLMU; details: solo application
Excerpt: as §1, §2, §3, §4, §5, §6, §7, §8

[5] = test system: Abutilon theophrasti (ABUTH); experiment: greenhouse post-emergence herbicidal activity on ABUTH; details: solo application
Excerpt: as §1, §2, §3, §4, §5, §6, §7, §8

[6] = test system: Matricaria inermis (MATIN); experiment: greenhouse post-emergence herbicidal activity on MATIN; details: solo application
Excerpt: as §1, §2, §3, §4, §5, §6, §7, §8

[7] = test system: Polygonum convolvulus (POLCO); experiment: greenhouse post-emergence herbicidal activity on POLCO; details: solo application
Excerpt: as §1, §2, §3, §4, §5, §6, §7, §8

Avena fatua (AVEFA) = experiment: greenhouse post-emergence herbicidal activity on AVEFA; details: 480 h, solo application, 6.25 g ai/ha, read-out: % activity 20 DAT
Excerpt: as §1, §2, §3, §4, §5, §6, §7, §8

[8] = test system: Echinochloa crus-galli (ECHCG); experiment: greenhouse post-emergence herbicidal activity on ECHCG; details: solo application, 1.56 g ai/ha
Excerpt: as §1, §2, §3
The evaluation for the damage caused by the chemical compositions was carried out using a scale from 0 to 100%, compared to the untreated control plants. […]
The value E, which is to be expected if the activity of the individual compounds is just additive, was calculated using the method of S. R. Colby (1967) “Calculating synergistic and antagonistic responses of herbicide combinations”, Weeds 15, p. […] For two component mixtures the value E was calculated by the following formula E=X+Y−(X·Y/100)
as §6, §7, §8

[9] = Alopecurus myosuroides, 480 h, 6.25 g ai/ha, read-out: % activity 20 DAT
[10] = Chenopodium album, 480 h, read-out: % activity 20 DAT
[11] = Digitaria sanguinalis, 480 h, 6.25 g ai/ha, read-out: % activity 20 DAT

CCNc1nc(Cl)nc(NC(C)C)n1 [atrazin]
inhibition at 250 g/ha ([1]; Alopecurus myosuroides, 480 h, 250 g ai/ha, read-out: % activity 20 DAT): 50% | inhibition at 62.5 g/ha ([2]; Chenopodium album, 480 h, 62.5 g ai/ha, read-out: % activity 20 DAT): 20% | inhibition at 125 g/ha ([2]; Chenopodium album, 480 h, 125 g ai/ha, read-out: % activity 20 DAT): 60% | inhibition at 62.5 g/ha ([3]; Digitaria sanguinalis, 480 h, 62.5 g ai/ha, read-out: % activity 20 DAT): 0%

Cc1cnc(C2=NC(=O)C(C)(C(C)C)N2)c(C(=O)O)c1 (stereo not shown) [imazapic]
inhibition at 20 g/ha ([1]; Alopecurus myosuroides, 480 h, 20 g ai/ha, read-out: % activity 20 DAT): 45% | inhibition at 5 g/ha (Galium aparine (GALAP); Galium aparine, 480 h, 5 g ai/ha, read-out: % activity 20 DAT): 55% | inhibition at 20 g/ha ([2]; Chenopodium album, 480 h, 20 g ai/ha, read-out: % activity 20 DAT): 40% | inhibition at 5 g/ha ([4]; Lolium multiflorum, 480 h, 5 g ai/ha, read-out: % activity 20 DAT): 60% | inhibition at 5 g/ha ([3]; Digitaria sanguinalis, 480 h, 5 g ai/ha, read-out: % activity 20 DAT): 50% | inhibition at 5 g/ha ([5]; Abutilon theophrasti, 480 h, 5 g ai/ha, read-out: % activity 20 DAT): 60%

O=C(Nc1ccc(F)cc1)c1cccc(Oc2cccc(C(F)(F)F)c2)n1 [picolinafen]
% activity 20 DAT ([1]; 6.25 g ai/ha): 0% | % activity 20 DAT ([1]; 25 g ai/ha): 0% | % activity 20 DAT (Galium aparine (GALAP); 6.25 g ai/ha): 30% | % activity 20 DAT ([2]; 12.5 g ai/ha): 30% | % activity 20 DAT ([4]; 12.5 g ai/ha): 10% | % activity 20 DAT ([3]; 6.25 g ai/ha): 30% | % activity 20 DAT ([3]; 12.5 g ai/ha): 45% | % activity 20 DAT ([6]; 50 g ai/ha): 60% | % activity 20 DAT ([5]; 6.25 g ai/ha): 30% | % activity 20 DAT ([5]; 25 g ai/ha): 60% | % activity 20 DAT ([7]; 50 g ai/ha): 80%

CS(=O)(=O)c1cc(C(F)(F)F)ccc1C(=O)c1cnoc1C1CC1 [isoxaflutole]
inhibition at 6.25 g/ha [1, 9]: 0% | inhibition at 6.25 g/ha [2, 10]: 75% | inhibition at 6.25 g/ha [3, 11]: 15% | inhibition at 6.25 g/ha ([5]; Abutilon theophrasti, 480 h, 6.25 g ai/ha, read-out: % activity 20 DAT): 55% | inhibition at 25 g/ha ([7]; Fallopia convolvulus, 480 h, 25 g ai/ha, read-out: % activity 20 DAT): 45%

C#CCN1C(=O)COc2cc(F)c(N3C(=O)C4=C(CCCC4)C3=O)cc21 [flumioxazin]
inhibition at 6.25 g/ha [1, 9]: 20% | inhibition at 12.5 g/ha ([1]; Alopecurus myosuroides, 480 h, 12.5 g ai/ha, read-out: % activity 20 DAT): 20% | inhibition at 6.25 g/ha (Galium aparine (GALAP); Galium aparine, 480 h, 6.25 g ai/ha, read-out: % activity 20 DAT): 30% | inhibition at 12.5 g/ha (Galium aparine (GALAP); Galium aparine, 480 h, 12.5 g ai/ha, read-out: % activity 20 DAT): 30% | inhibition at 6.25 g/ha [2, 10]: 0% | inhibition at 12.5 g/ha ([2]; Chenopodium album, 480 h, 12.5 g ai/ha, read-out: % activity 20 DAT): 30% | inhibition at 6.25 g/ha [3, 11]: 15% | inhibition at 6.25 g/ha ([6]; Matricaria, 480 h, 6.25 g ai/ha, read-out: % activity 20 DAT): 65% | inhibition at 6.25 g/ha (Avena fatua (AVEFA)): 35%

CC(C)N(C)S(=O)(=O)NC(=O)c1cc(-n2c(=O)cc(C(F)(F)F)n(C)c2=O)c(F)cc1Cl [saflufenacil]
% activity 20 DAT ([1]; 1.56 g ai/ha): 0% | % activity 20 DAT ([1]; 3.13 g ai/ha): 0% | % activity 20 DAT (Galium aparine (GALAP); 3.13 g ai/ha): 30% | % activity 20 DAT ([2]; 1.56 g ai/ha): 40% | % activity 20 DAT ([3]; 1.56 g ai/ha): 0% | % activity 20 DAT ([6]; 1.56 g ai/ha): 20% | % activity 20 DAT ([6]; 3.13 g ai/ha): 55% | % activity 20 DAT [8]: 0% | % activity 20 DAT ([5]; 1.56 g ai/ha): 45% | % activity 20 DAT ([7]; 1.56 g ai/ha): 45% | % activity 20 DAT ([7]; 3.13 g ai/ha): 55%
